Key:
[1] = refractive index (Na D-line) (dimensionless); conditions: 298.15 K; 101.33 kPa; Liquid; Standard Abbe refractometry
[2] = for surface tension liquid-gas: Maximal bubble pressure; for mass density: 101.33 kPa, Vibrating tube method
[3] = xn = mol fraction of the nth substance listed; conditions: 298.15 K, 101 kPa, Liquid, Vibrating tube method

Cc1ccc(C)o1 [2,5-dimethylfuran]
Conditions | refractive index
[1] | 1.4404

[2]
Conditions | surface tension liquid-gas [mN/m]
293.15 K | 25.42
303.15 K | 24.04
313.15 K | 22.73
323.15 K | 21.41
333.15 K | 20.22
343.15 K | 19.1
353.15 K | 18.05
358.15 K | 17.5

[2]
Conditions | Normal boiling temperature, Liquid [°C] | mass density, 293.15 K [kg/m3] | mass density, 298.15 K [kg/m3] | mass density, 303.15 K [kg/m3] | mass density, 313.15 K [kg/m3] | mass density, 323.15 K [kg/m3] | mass density, 333.15 K [kg/m3] | mass density, 343.15 K [kg/m3] | mass density, 353.15 K [kg/m3] | mass density, 358.15 K [kg/m3]
Ebulliometric method (Recirculating still) | 93.68 | – | – | – | – | – | – | – | – | –
Liquid | – | 901.18 | 895.7 | 890.37 | 879.43 | 868.36 | 857.1 | 845.67 | 834.01 | 828.13

[2], Liquid, Ebulliometric method (Recirculating still)
Conditions | vapor or sublimation pressure [kPa]
331.46 K | 30.01
335.51 K | 35.01
339.09 K | 40.01
342.32 K | 45.01
345.26 K | 50.01
348 K | 55.01
350.53 K | 60.01
352.9 K | 65.01
355.13 K | 70.01
357.24 K | 75.01
359.24 K | 80.01
361.13 K | 85.01
362.95 K | 90.01
364.69 K | 95.01
366.79 K | 101.33

Cc1ccc(C)o1 [2,5-dimethylfuran] + CCCCCC
[3]
Conditions | mass density [kg/m3]
x2 = 0 | 895.7
x2 = 0.058 | 878.43
x2 = 0.103 | 865.07
x2 = 0.169 | 846.48
x2 = 0.211 | 834.86
x2 = 0.284 | 815.33
x2 = 0.326 | 804.35
x2 = 0.373 | 792.42
x2 = 0.425 | 779.22
x2 = 0.474 | 767.35
x2 = 0.523 | 755.53
x2 = 0.577 | 743.04
x2 = 0.671 | 722.12
x2 = 0.73 | 709.38
x2 = 0.854 | 683.63
x2 = 0.915 | 671.56
x2 = 0.979 | 659.09

CCCCCC [hexane] + Cc1ccc(C)o1
Conditions | mass density [kg/m3]
[3], x1 = 1 | 655.17

Reference: the NIST ThermoML archive (doi:10.1021/je300631s)
